Source: the CheMixHub viscosity set

Assay: xn = mol fraction of the nth substance listed

COCCOCCOC + CCCOC(C)=O
viscosity [mPa·s], 101.3 kPa
Details | 298.15 K | 308.15 K | 318.15 K
x1 = 0.0296 | 0.567 | 0.499 | 0.447
x1 = 0.076 | 0.586 | 0.515 | 0.46
x1 = 0.0957 | 0.594 | 0.521 | 0.467
x1 = 0.1388 | 0.611 | 0.534 | 0.478
x1 = 0.1878 | 0.633 | 0.551 | 0.492
x1 = 0.2478 | 0.656 | 0.572 | 0.508
x1 = 0.3236 | 0.688 | 0.597 | 0.528
x1 = 0.3893 | 0.716 | 0.619 | 0.544
x1 = 0.4382 | 0.736 | 0.635 | 0.557
x1 = 0.5153 | 0.769 | 0.662 | 0.579
x1 = 0.5945 | 0.805 | 0.691 | 0.603
x1 = 0.6605 | 0.835 | 0.715 | 0.626
x1 = 0.735 | 0.87 | 0.744 | 0.648
x1 = 0.7756 | 0.888 | 0.759 | 0.659
x1 = 0.8324 | 0.916 | 0.779 | 0.676
x1 = 0.8696 | 0.933 | 0.793 | 0.687
x1 = 0.9082 | 0.954 | 0.808 | 0.699
x1 = 0.9425 | 0.97 | 0.822 | 0.71
x1 = 0.9777 | 0.988 | 0.835 | 0.722
x2 = 0.0101 | – | – | 0.725
x2 = 0.0103 | 0.991 | 0.84 | –

CNc1ccccc1 + CCCCOCCO
viscosity [mPa·s], 101.3 kPa
Details | x2 = 0.0992 | x2 = 0.2016 | x2 = 0.3298 | x2 = 0.4032 | x2 = 0.4978 | x2 = 0.6441 | x2 = 0.7771 | x2 = 0.8935
298 K | 2.01 | 2.089 | 2.213 | 2.314 | 2.425 | 2.589 | 2.709 | 2.788
303 K | 1.756 | 1.811 | 1.918 | 1.999 | 2.094 | 2.232 | 2.319 | 2.395
308 K | 1.567 | 1.613 | 1.699 | 1.753 | 1.836 | 1.951 | 2.049 | 2.111
313 K | 1.398 | 1.433 | 1.502 | 1.55 | 1.619 | 1.718 | 1.792 | 1.851
318 K | 1.256 | 1.302 | 1.352 | 1.444 | 1.495 | 1.576 | 1.661 | 1.696

COCCOCCOC + CC(C)(C)O
viscosity [mPa·s], 101 kPa
Details | x1 = 0.1032 | x1 = 0.2054 | x1 = 0.3014 | x1 = 0.4031 | x1 = 0.5025 | x1 = 0.6046 | x1 = 0.7072 | x1 = 0.8058 | x1 = 0.8973
298.15 K | 2.377 | 1.768 | 1.453 | 1.259 | 1.146 | 1.073 | 1.032 | 1.008 | 0.995
303.15 K | 1.954 | 1.523 | 1.274 | 1.123 | 1.033 | 0.974 | 0.943 | 0.921 | 0.915
308.15 K | 1.625 | 1.319 | 1.13 | 1.009 | 0.937 | 0.888 | 0.864 | 0.852 | 0.844

CCCCCCN + COCCO
308.15 K, 101 kPa
Details | viscosity [mPa·s]
x2 = 0.1567 | 0.8278
x2 = 0.2965 | 1.059
x2 = 0.4194 | 1.245
x2 = 0.5291 | 1.381
x2 = 0.6276 | 1.456
x2 = 0.7166 | 1.459
x2 = 0.7973 | 1.434
x2 = 0.8708 | 1.397
x2 = 0.9382 | 1.338

Oc1ccccc1 + c1ccccc1
Details | viscosity [mPa·s]
293.15 K, 101 kPa, x1 = 0.0507 | 0.683
293.15 K, 101 kPa, x1 = 0.0831 | 0.724
293.15 K, 101 kPa, x1 = 0.1719 | 0.865
293.15 K, 101 kPa, x1 = 0.2846 | 1.126
293.15 K, 101 kPa, x1 = 0.3763 | 1.401
293.15 K, 101 kPa, x1 = 0.4837 | 1.911
293.15 K, 101 kPa, x1 = 0.5924 | 2.642
293.15 K, 101 kPa, x1 = 0.7038 | 3.811
293.15 K, 101 kPa, x1 = 0.8043 | 5.35
298.15 K, 101.33 kPa, x1 = 0.083 | 0.6592
298.15 K, 101.33 kPa, x1 = 0.181 | 0.8516
298.15 K, 101.33 kPa, x1 = 0.2 | 0.841
298.15 K, 101.33 kPa, x1 = 0.239 | 0.9218
298.15 K, 101.33 kPa, x1 = 0.279 | 1.037
298.15 K, 101.33 kPa, x1 = 0.37 | 1.157
298.15 K, 101.33 kPa, x1 = 0.478 | 1.696
298.15 K, 101.33 kPa, x1 = 0.5 | 1.711
298.15 K, 101.33 kPa, x1 = 0.522 | 1.849
298.15 K, 101.33 kPa, x1 = 0.619 | 2.54
298.15 K, 101.33 kPa, x1 = 0.658 | 2.783
298.15 K, 101.33 kPa, x1 = 0.692 | 3.172
298.15 K, 101.33 kPa, x1 = 0.762 | 3.936
298.15 K, 101.33 kPa, x1 = 0.786 | 4.424
323.15 K, 101.33 kPa, x1 = 0.2 | 0.568
323.15 K, 101.33 kPa, x1 = 0.5 | 0.968

N#CCCO + CC#N
298 K, 101 kPa
Details | viscosity [mPa·s]
x1 = 0.1342 | 0.466
x1 = 0.2793 | 0.689
x1 = 0.4366 | 0.906
x1 = 0.6079 | 1.358
x1 = 0.7949 | 2.144

COCCOCCOC + CCCCCCCC
viscosity [mPa·s], 101.33 kPa
Details | x1 = 0.0946 | x1 = 0.203 | x1 = 0.2985 | x1 = 0.3956 | x1 = 0.4955 | x1 = 0.5945 | x1 = 0.697 | x1 = 0.7972 | x1 = 0.8977
298.15 K | 0.515 | 0.535 | 0.561 | 0.594 | 0.636 | 0.681 | 0.748 | 0.807 | 0.884
303.15 K | 0.485 | 0.503 | 0.536 | 0.557 | 0.593 | 0.636 | 0.686 | 0.746 | 0.82
308.15 K | 0.458 | 0.475 | 0.501 | 0.523 | 0.556 | 0.596 | 0.641 | 0.695 | 0.762
313.15 K | 0.432 | 0.448 | 0.473 | 0.493 | 0.524 | 0.559 | 0.604 | 0.65 | 0.712
318.15 K | 0.41 | 0.425 | 0.446 | 0.466 | 0.493 | 0.523 | 0.575 | 0.61 | 0.667

ClC(Cl)C(Cl)Cl + CC(C)=O
298.15 K, 101 kPa
Details | viscosity [mPa·s]
x1 = 0.2 | 0.509
x1 = 0.4 | 0.811
x1 = 0.6 | 1.138
x1 = 0.8 | 1.499

ClC(Cl)C(Cl)Cl + O=S1(=O)CCCC1
viscosity [mPa·s], 100 kPa
Details | x2 = 0.0224 | x2 = 0.1377 | x2 = 0.2568 | x2 = 0.3746 | x2 = 0.4803 | x2 = 0.5855 | x2 = 0.7134 | x2 = 0.8418 | x2 = 0.9751
303.15 K | 1.674 | 2.8 | 3.962 | 5.052 | 5.983 | 6.858 | 7.865 | 8.855 | 9.835
308.15 K | 1.537 | 2.519 | 3.525 | 4.469 | 5.292 | 6.043 | 6.927 | 7.779 | 8.631
313.15 K | 1.417 | 2.285 | 3.173 | 4.004 | 4.72 | 5.396 | 6.171 | 6.937 | 7.691

CNc1ccccc1 + c1ccccc1
298.15 K, 101 kPa
Details | viscosity [mPa·s]
x2 = 0.069 | 1.851
x2 = 0.11 | 1.728
x2 = 0.17 | 1.601
x2 = 0.264 | 1.433
x2 = 0.376 | 1.226
x2 = 0.387 | 1.202
x2 = 0.428 | 1.156
x2 = 0.513 | 1.055
x2 = 0.582 | 0.966
x2 = 0.697 | 0.842
x2 = 0.802 | 0.747
x2 = 0.852 | 0.71
x2 = 0.93 | 0.656

Oc1ccccc1 + CS(C)=O
viscosity [mPa·s], 101 kPa
Details | x2 = 0.2 | x2 = 0.3 | x2 = 0.4 | x2 = 0.5 | x2 = 0.6 | x2 = 0.7 | x2 = 0.8 | x2 = 0.9
298.15 K | 8.913 | 7.767 | 6.467 | 5.173 | 4.111 | 3.282 | 2.726 | 2.308
308.15 K | 5.87 | 5.328 | 4.618 | 3.826 | 3.127 | 2.579 | 2.192 | 1.902
318.15 K | 4.15 | 3.888 | 3.486 | 2.977 | 2.489 | 2.09 | 1.794 | 1.577

CC(C)Cc1ccc(C(C)C(=O)O)cc1 (stereo not given) + CCCO
viscosity [mPa·s], 100 kPa
Details | x1 = 0.00242 | x1 = 0.00365 | x1 = 0.00483 | x1 = 0.006021 | x1 = 0.007225 | x1 = 0.0096 | x1 = 0.012
298.15 K | 1.95 | 1.956 | 1.963 | 1.971 | 1.979 | 1.995 | 2.014
308.15 K | 1.529 | 1.538 | 1.548 | 1.56 | 1.575 | 1.605 | 1.639

CCCCCCN + C1CCCCC1
303.15 K, 101 kPa
Details | viscosity [mPa·s]
x2 = 0.1064 | 0.7192
x2 = 0.2992 | 0.7005
x2 = 0.4953 | 0.7021
x2 = 0.5974 | 0.7073
x2 = 0.6964 | 0.7145
x2 = 0.7966 | 0.72
x2 = 0.898 | 0.7541
